Laboratory results taken from ChEMBL document CHEMBL1201862, “PubChem BioAssay data set” (2004).
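How tested: cells in 96-well plates exposed to compound for 48 hours at five concentrations. The concentration for 50% growth inhibition is given as GI50.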 Activity calls are given as the source filed them. Cut-off read from the data, not from the text of the source: active = GI50 up to about 1.1 µM and inactive = higher.

Key:
Experiment in all cases: DTP human tumour cell line panel, 48 h
KM12 = tested on: KM12
MCF7 = tested on: MCF7
NCI-H23 = tested on: NCI-H23
NCI-H522 = tested on: NCI-H522
NCI/ADR-RES = tested on: NCI/ADR-RES
OVCAR-4 = tested on: OVCAR-4
PC-3 = tested on: PC-3
RXF 393 = tested on: RXF 393
SNB-19 = tested on: SNB-19
SR = tested on: SR
SW-620 = tested on: SW-620
UACC-257 = tested on: UACC-257
UACC-62 = tested on: UACC-62
UO-31 = tested on: UO-31
HCT-116 = tested on: HCT-116
HOP-62 = tested on: HOP-62
NCI-H226 = tested on: NCI-H226
RPMI-8226 = tested on: RPMI-8226
CAKI-1 = tested on: CAKI-1
DU-145 = tested on: DU-145

SMILES | GI50 (KM12) | GI50 (MCF7) | GI50 (NCI-H23) | GI50 (NCI-H522) | GI50 (NCI/ADR-RES) | GI50 (OVCAR-4) | GI50 (PC-3) | GI50 (RXF 393) | GI50 (SNB-19) | GI50 (SR) | GI50 (SW-620) | GI50 (UACC-257) | GI50 (UACC-62) | GI50 (UO-31) | GI50 (HCT-116) | GI50 (HOP-62) | GI50 (NCI-H226) | GI50 (RPMI-8226) | GI50 (CAKI-1) | GI50 (DU-145)
O=C(Cc1ccc([N+](=O)[O-])cc1)OCC#CCOC(=O)Cc1ccc([N+](=O)[O-])cc1 | > 10 µM (inactive) | > 10 µM (inactive) | > 10 µM (inactive) | > 10 µM (inactive) | > 10 µM (inactive) | > 10 µM (inactive) | > 10 µM (inactive) | > 10 µM (inactive) | > 10 µM (inactive) | > 10 µM (inactive) | > 10 µM (inactive) | > 10 µM (inactive) | > 10 µM (inactive) | > 10 µM (inactive) | – | – | – | – | – | –
O=C(c1ccccc1)C1(Br)S(=O)(=O)OCCOS1(=O)=O | – | – | > 100 µM (inactive) | > 100 µM (inactive) | – | > 100 µM (inactive) | – | > 100 µM (inactive) | > 100 µM (inactive) | > 100 µM (inactive) | > 100 µM (inactive) | > 100 µM (inactive) | > 100 µM (inactive) | > 100 µM (inactive) | > 100 µM (inactive) | > 100 µM (inactive) | > 100 µM (inactive) | > 100 µM (inactive) | – | –
COc1cc2oc(-c3ccc(O)cc3)cc(=O)c2c(OC)c1O | – | > 100 µM (inactive) | > 100 µM (inactive) | 29.8 µM (inactive) | > 100 µM (inactive) | > 100 µM (inactive) | – | 29 µM (inactive) | 45.4 µM (inactive) | – | > 100 µM (inactive) | > 100 µM (inactive) | 99.5 µM (inactive) | 33.2 µM (inactive) | 54 µM (inactive) | 29.2 µM (inactive) | > 100 µM (inactive) | 89.9 µM (inactive) | > 100 µM (inactive) | 94.8 µM (inactive)
FC(F)(F)c1ccc(C2SCc3nc4ccccc4n32)cc1 (stereo not drawn) | 50 µM (inactive) | – | 5.89 µM (inactive) | > 10 µM (inactive) | – | – | – | 97.5 µM (inactive) | > 100 µM (inactive) | 16.2 µM (inactive) | > 100 µM (inactive) | 6.56 µM (inactive) | 26.4 µM (inactive) | > 100 µM (inactive) | 27.9 µM (inactive) | – | > 100 µM (inactive) | 12.4 µM (inactive) | > 10 µM (inactive) | –
C[C@@]1(O)CC[C@]2(C)C3CCCC3[C@H]12 (stereo partly drawn) | > 100 µM (inactive) | – | > 100 µM (inactive) | > 100 µM (inactive) | – | > 100 µM (inactive) | – | > 100 µM (inactive) | > 100 µM (inactive) | > 100 µM (inactive) | > 100 µM (inactive) | > 100 µM (inactive) | > 100 µM (inactive) | > 100 µM (inactive) | > 100 µM (inactive) | > 100 µM (inactive) | > 100 µM (inactive) | > 100 µM (inactive) | > 100 µM (inactive) | –
CCCCCCCCCC(=O)OCC1OC(n2cc(F)c(=O)[nH]c2=O)C(NC(=O)OCc2ccccc2)C(OC(=O)CCCCCCCCC)C1O (stereo not drawn) | 31 µM (inactive) | – | 25.5 µM (inactive) | 20.9 µM (inactive) | – | 16.6 µM (inactive) | – | 18.8 µM (inactive) | 33.6 µM (inactive) | 17.5 µM (inactive) | 26.4 µM (inactive) | 61.8 µM (inactive) | 44.2 µM (inactive) | 40.2 µM (inactive) | 14.9 µM (inactive) | > 100 µM (inactive) | – | 21.4 µM (inactive) | > 100 µM (inactive) | –
CC1=C(C(=O)CC(=O)C(=O)Nc2ccccc2C)Sc2ccccc2N1 | > 100 µM (inactive) | – | > 100 µM (inactive) | > 55 µM (inactive) | – | > 100 µM (inactive) | – | > 57.4 µM (inactive) | > 100 µM (inactive) | > 100 µM (inactive) | > 39.3 µM (inactive) | > 100 µM (inactive) | > 100 µM (inactive) | > 100 µM (inactive) | > 40.6 µM (inactive) | > 100 µM (inactive) | > 100 µM (inactive) | > 45 µM (inactive) | > 100 µM (inactive) | –
Oc1ccc(Br)cc1/C=N/c1ccc(Oc2ccc(/N=C/c3cc(Br)ccc3O)cc2)cc1 | > 19.6 µM (inactive) | – | > 19.6 µM (inactive) | > 19.6 µM (inactive) | – | > 19.6 µM (inactive) | – | > 19.6 µM (inactive) | > 19.6 µM (inactive) | > 19.6 µM (inactive) | > 19.6 µM (inactive) | > 19.6 µM (inactive) | > 19.6 µM (inactive) | > 19.6 µM (inactive) | > 19.6 µM (inactive) | > 19.6 µM (inactive) | > 19.6 µM (inactive) | > 19.6 µM (inactive) | > 19.6 µM (inactive) | –
Cc1ccc(S(=O)(=O)Nn2c(O)c(C#N)c(-c3ccc(N(C)C)cc3)c(C#N)c2=O)cc1 | > 50 µM (inactive) | > 50 µM (inactive) | – | > 50 µM (inactive) | > 50 µM (inactive) | > 50 µM (inactive) | > 50 µM (inactive) | > 50 µM (inactive) | > 50 µM (inactive) | – | > 50 µM (inactive) | > 50 µM (inactive) | 19.8 µM (inactive) | – | > 50 µM (inactive) | > 50 µM (inactive) | > 50 µM (inactive) | 9.75 µM (inactive) | > 50 µM (inactive) | –
Cc1ccc(/N=C2/S/C(=C3/CCC=C3N3CCOCC3)N(c3ccc(Cl)cc3)/C2=N/c2ccc(C)cc2)cc1 | > 100 µM (inactive) | > 100 µM (inactive) | > 100 µM (inactive) | – | – | – | > 100 µM (inactive) | > 100 µM (inactive) | > 100 µM (inactive) | > 100 µM (inactive) | > 100 µM (inactive) | > 100 µM (inactive) | > 100 µM (inactive) | > 100 µM (inactive) | > 100 µM (inactive) | > 100 µM (inactive) | > 100 µM (inactive) | > 100 µM (inactive) | – | –
CCCN1CCC(=O)N(CCC(F)(F)C(F)(F)C(F)(F)C(F)(F)C(F)(F)C(F)(F)F)C1=S | 71 µM (inactive) | > 100 µM (inactive) | > 100 µM (inactive) | > 100 µM (inactive) | – | > 100 µM (inactive) | > 100 µM (inactive) | 99.5 µM (inactive) | > 100 µM (inactive) | > 100 µM (inactive) | > 100 µM (inactive) | > 100 µM (inactive) | > 100 µM (inactive) | > 100 µM (inactive) | > 100 µM (inactive) | > 100 µM (inactive) | > 100 µM (inactive) | – | > 100 µM (inactive) | > 100 µM (inactive)
CC(=O)OC1OC2C(NC(=O)OC(C)(C)C)C1CC2(OCc1ccccc1)OCc1ccccc1 (stereo not drawn) | 27.8 µM (inactive) | – | 18.8 µM (inactive) | 15.1 µM (inactive) | – | – | – | 14.2 µM (inactive) | 45.1 µM (inactive) | 17.8 µM (inactive) | 32.8 µM (inactive) | 19.1 µM (inactive) | 19 µM (inactive) | 13.1 µM (inactive) | 16.7 µM (inactive) | 28.2 µM (inactive) | 24.7 µM (inactive) | 11.6 µM (inactive) | 32.4 µM (inactive) | –
CN(C)CCC(/C=C/c1ccccc1)=N\Nc1ccc(Cl)cc1Cl | 15.1 µM (inactive) | – | 17.1 µM (inactive) | 15.3 µM (inactive) | – | 14.7 µM (inactive) | – | 8.77 µM (inactive) | 15.5 µM (inactive) | 7.57 µM (inactive) | 14 µM (inactive) | 13.9 µM (inactive) | 9.35 µM (inactive) | 1.73 µM (inactive) | 14.5 µM (inactive) | 13.6 µM (inactive) | – | 11.7 µM (inactive) | – | –
CC[C@]1(Cc2ccc(OC)c(OC)c2)[C@@H]2C[C@@H](C(=O)OC)ON2O[C@H](OC2CCCC2(c2ccccc2)c2ccccc2)[C@@H]1OC(C)=O (stereo partly drawn) | > 100 µM (inactive) | > 100 µM (inactive) | > 100 µM (inactive) | – | > 100 µM (inactive) | – | – | > 100 µM (inactive) | > 100 µM (inactive) | 66.7 µM (inactive) | > 100 µM (inactive) | > 100 µM (inactive) | > 100 µM (inactive) | > 100 µM (inactive) | > 100 µM (inactive) | > 100 µM (inactive) | > 100 µM (inactive) | – | > 100 µM (inactive) | > 100 µM (inactive)
COC1CCC(OC2CC(C3(C)CCC4(CC(O)C(C)C(C(C)/C=C(\C)C(=O)C(C)CC(C)C(=O)O)O4)O3)OC3(OC(C4OC(O)(CO)C(C)CC4C)CC3C)C2C)OC1C (stereo not drawn) | 0.0753 µM (active) | < 0.0208 µM (active) | < 0.0345 µM (active) | < 0.01 µM (active) | – | 0.337 µM (active) | < 0.01 µM (active) | < 0.01 µM (active) | 0.0434 µM (active) | < 0.01 µM (active) | < 0.0269 µM (active) | < 0.0199 µM (active) | 0.132 µM (active) | 0.0548 µM (active) | < 0.0279 µM (active) | < 0.0156 µM (active) | 0.378 µM (active) | < 0.01 µM (active) | 0.0982 µM (active) | < 0.0501 µM (active)
O=C(O)c1cccc(S(=O)(=O)NN2C(=O)CSC2c2ccccc2Cl)c1 (stereo not drawn) | > 100 µM (inactive) | > 100 µM (inactive) | > 100 µM (inactive) | > 100 µM (inactive) | – | – | > 100 µM (inactive) | > 100 µM (inactive) | > 100 µM (inactive) | 4.09 µM (inactive) | > 100 µM (inactive) | > 100 µM (inactive) | > 100 µM (inactive) | > 100 µM (inactive) | > 100 µM (inactive) | > 100 µM (inactive) | 58.3 µM (inactive) | 81.3 µM (inactive) | > 100 µM (inactive) | > 100 µM (inactive)
